Like-named read-outs stand apart in the source and are kept apart here.
Key:
E-cNOS (Type 3) = target: T1, E-cNOS (Type 3) (Bos taurus, UniProt P29473); experiment: biochemical; conditions: mean of one to four independent experiments; crude enzyme, 100 nM L-[3H]arginine; read-out: IC50 value, E-cNOS (Type 3)
T1 construct: the resulting supernatant was used as the crude enzyme sample of E-cNOS; endogenous in cells; host or cells: CPAE (cow pulmonary arterial endothelium cells), 1% Triton X-100 extract, 100,000 x g supernatant
Method: The crude enzyme sample of E-cNOS was prepared by the following procedure. A cow pulmonary arterial endothielium cell (CPAE) was cultured in a MEM medium containing 20% FBS. […] A suitable amount of Ca- and Mg-free phosphate buffer (pH 7.4) was added to the precipitating cells and they were centrifuged at 1,000 rpm for 10 min. The same step was repeated to wash the cells which, upon addition of 50 mM Tris-HCl (pH 7.4) containing 1% Triton X-100 and 1 mM DTT, were left to stand in ice for 1 h. Subsequently, the mixture was homogenized for 3 min and kept in ice for 30 min with occasional stirring. Finally, the mixture was centrifuged at 100,000×g for 60 min and the resulting supernatant was used as the crude enzyme sample of E-cNOS.
The reaction was started by addition of L-[^3H]arginine and following incubation at 37° C. for 10 min, the reaction was terminated by addition of 2 ml of 50 mM Tris-HCl (pH 5.5) containing 1 mM EDTA and placing the mixture on ice. The reaction solution was passed through a cation-exchange resin column (Dowex AG50WX-8, Na^+ form, 3.2 ml) to separate the reaction product L-[^3H]citrulline from the unreacted residual substrate L-[^3H]arginine. The eluate was combined with another eluate resulting from the passage of a given amount of distilled water through the column and put into a minivial for recovery of L-[^3H]citrulline. Thereafter, a scintillation fluid was added and the contained radioactivity was measured with a liquid scintillation counter to determine the amount of L-[^3H]citrulline.
The activity of N-cNOS or E-cNOS was determined by subtracting the activity as detected in the absence of CaCl2 and calmodulin from the activity as detected in the presence of CaCl2 and calmodulin. […] The protein concentration of each crude enzyme sample was determined with a micro-assay kit of Biorad Co. Each experiment was conducted in a duplicate.

iNOS (Type 2) = iNOS (Type 2) (Rattus norvegicus, UniProt Q06518); experiment: biochemical; format: biochemical; conditions: for IC50: mean of one to four independent experiments, crude enzyme, 100 nM L-[3H]arginine, without CaCl2 and calmodulin, read-out: IC50 value, iNOS (Type 2)
N-cNOS = N-cNOS (Homo sapiens, UniProt P29475); conditions: literature reports; cited from earlier work
[1] = tested on: focal cerebral ischemia in rats; conditions: administered after 3 hours of ischemia; Zhang et al. 1995; cited from earlier work
iNOS = iNOS (Homo sapiens, UniProt P35228); conditions: literature reports; cited from earlier work
[2] = tested on: gerbil model of forebrain ischemia; conditions: Nagafuji et al. 1993; cited from earlier work
[3] = tested on: rat model of focal cerebral ischemia; conditions: Nagafuji et al. 1992; cited from earlier work
[4] = tested on: rat model of focal cerebral ischemia (permanent MCA occlusion); experiment: Brain edema (brain water content, dry-wet method) after 48-h occlusion of the left middle cerebral artery; format: in vivo; conditions: 48 hours after MCA occlusion
Method: An experiment was conducted to evaluate the effectiveness of a compound within the scope of the invention using a rat model of focal cerebral ischemia. Such models were prepared by occluding the left middle cerebral artery (MCA) in accordance with the method already reported by the present inventors (Nagafuji et al., Neurosci. Lett. 147, 159-162, 1992; Nagafuji et al., in Brain Edema IX (Ito et al., eds.) 60, pp. 285-288, 1994, Springer-Verlag; Nagafuji et al., Neuroreport 6, 1541-1545, 1995). […]
The water content in the brain which was an index of brain edema formation was measured by the dry-wet method (Nagafuji et al., Neurosci. Lett. 147, 159-162, 1992) in the following manner. Forty-eight hours after the MCA occlusion, the rats were decapitated and both the right and left cerebral hemispheres were extracted from each animal within 60 seconds; the wet weight of the brain tissue of each hemisphere was measured with a chemical balance within 90 seconds. Thereafter, the hemispheres were dried in an oven at 105° C. for 3 days and their dry weights were measured. The water content in the brain was determined by the following forumula: (wet weight−dry weight)/(wet weight)×100 (%). […]

[5] = tested on: rat model of focal cerebral ischemia (temporary MCA occlusion); experiment: Brain infarct volume (TTC staining) after 3-h MCA occlusion and 24-h reperfusion; format: in vivo
[6] = conclusion from Tables 49, 50 and 51

T1 sequence (P29473 2-1205): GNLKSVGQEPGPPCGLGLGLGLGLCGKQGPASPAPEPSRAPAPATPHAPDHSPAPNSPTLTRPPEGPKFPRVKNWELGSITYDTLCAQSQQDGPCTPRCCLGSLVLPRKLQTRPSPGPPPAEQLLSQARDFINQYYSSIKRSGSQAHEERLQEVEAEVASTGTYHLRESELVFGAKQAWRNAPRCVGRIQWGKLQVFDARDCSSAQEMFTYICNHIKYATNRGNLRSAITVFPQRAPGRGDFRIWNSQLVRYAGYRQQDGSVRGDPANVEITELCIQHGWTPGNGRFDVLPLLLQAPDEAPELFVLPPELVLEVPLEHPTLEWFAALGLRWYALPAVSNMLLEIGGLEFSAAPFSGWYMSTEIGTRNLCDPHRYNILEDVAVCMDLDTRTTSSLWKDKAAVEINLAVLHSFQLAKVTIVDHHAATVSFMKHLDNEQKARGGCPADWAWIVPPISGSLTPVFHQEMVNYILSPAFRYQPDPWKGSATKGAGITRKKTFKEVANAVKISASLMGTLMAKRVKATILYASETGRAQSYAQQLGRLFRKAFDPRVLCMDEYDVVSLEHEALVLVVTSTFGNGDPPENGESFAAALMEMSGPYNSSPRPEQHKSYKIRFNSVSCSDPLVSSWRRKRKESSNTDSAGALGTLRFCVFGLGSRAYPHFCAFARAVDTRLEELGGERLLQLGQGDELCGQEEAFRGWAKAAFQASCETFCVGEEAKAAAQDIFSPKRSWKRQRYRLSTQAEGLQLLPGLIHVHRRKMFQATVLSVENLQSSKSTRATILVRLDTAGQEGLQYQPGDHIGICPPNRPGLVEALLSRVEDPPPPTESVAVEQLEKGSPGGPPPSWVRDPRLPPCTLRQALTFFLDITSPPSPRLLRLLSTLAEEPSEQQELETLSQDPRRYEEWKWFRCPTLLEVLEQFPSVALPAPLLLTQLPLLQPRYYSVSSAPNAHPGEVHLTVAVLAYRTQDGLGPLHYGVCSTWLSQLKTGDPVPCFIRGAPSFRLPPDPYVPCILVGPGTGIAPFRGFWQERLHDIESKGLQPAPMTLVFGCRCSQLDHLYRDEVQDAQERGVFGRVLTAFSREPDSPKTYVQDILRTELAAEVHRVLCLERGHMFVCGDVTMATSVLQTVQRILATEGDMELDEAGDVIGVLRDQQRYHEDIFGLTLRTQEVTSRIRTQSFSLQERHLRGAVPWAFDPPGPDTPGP
Chain of iNOS (Type 2) (Q06518 whole entry, looked up): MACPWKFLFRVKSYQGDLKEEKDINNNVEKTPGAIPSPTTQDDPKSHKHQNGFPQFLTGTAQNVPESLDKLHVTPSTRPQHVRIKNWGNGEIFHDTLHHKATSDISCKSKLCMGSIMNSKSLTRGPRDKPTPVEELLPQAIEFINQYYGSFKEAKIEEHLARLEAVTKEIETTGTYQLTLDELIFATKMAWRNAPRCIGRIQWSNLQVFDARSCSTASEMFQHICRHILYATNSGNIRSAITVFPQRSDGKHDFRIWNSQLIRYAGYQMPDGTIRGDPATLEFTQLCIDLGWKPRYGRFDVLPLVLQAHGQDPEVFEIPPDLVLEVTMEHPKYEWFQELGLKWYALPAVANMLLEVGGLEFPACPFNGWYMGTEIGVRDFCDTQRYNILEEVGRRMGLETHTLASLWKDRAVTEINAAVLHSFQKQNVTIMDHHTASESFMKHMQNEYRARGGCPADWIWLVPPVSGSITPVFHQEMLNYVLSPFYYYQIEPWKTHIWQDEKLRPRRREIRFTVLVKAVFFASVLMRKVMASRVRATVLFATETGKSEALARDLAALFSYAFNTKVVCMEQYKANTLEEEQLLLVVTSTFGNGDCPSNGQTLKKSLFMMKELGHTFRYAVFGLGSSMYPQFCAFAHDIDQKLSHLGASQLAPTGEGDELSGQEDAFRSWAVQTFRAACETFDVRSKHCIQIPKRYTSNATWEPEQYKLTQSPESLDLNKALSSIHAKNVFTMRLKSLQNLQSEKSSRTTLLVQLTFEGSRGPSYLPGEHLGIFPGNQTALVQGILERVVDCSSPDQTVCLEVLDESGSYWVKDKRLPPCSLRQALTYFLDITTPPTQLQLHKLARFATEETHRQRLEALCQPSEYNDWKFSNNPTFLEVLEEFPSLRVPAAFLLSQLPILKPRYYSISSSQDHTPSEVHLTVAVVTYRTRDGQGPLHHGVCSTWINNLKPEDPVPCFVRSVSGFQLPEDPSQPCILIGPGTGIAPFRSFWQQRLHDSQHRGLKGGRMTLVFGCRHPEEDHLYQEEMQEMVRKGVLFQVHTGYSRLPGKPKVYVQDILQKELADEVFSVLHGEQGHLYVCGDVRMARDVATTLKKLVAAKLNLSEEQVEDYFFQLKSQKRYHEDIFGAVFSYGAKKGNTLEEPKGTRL
Chain of N-cNOS (P29475 whole entry): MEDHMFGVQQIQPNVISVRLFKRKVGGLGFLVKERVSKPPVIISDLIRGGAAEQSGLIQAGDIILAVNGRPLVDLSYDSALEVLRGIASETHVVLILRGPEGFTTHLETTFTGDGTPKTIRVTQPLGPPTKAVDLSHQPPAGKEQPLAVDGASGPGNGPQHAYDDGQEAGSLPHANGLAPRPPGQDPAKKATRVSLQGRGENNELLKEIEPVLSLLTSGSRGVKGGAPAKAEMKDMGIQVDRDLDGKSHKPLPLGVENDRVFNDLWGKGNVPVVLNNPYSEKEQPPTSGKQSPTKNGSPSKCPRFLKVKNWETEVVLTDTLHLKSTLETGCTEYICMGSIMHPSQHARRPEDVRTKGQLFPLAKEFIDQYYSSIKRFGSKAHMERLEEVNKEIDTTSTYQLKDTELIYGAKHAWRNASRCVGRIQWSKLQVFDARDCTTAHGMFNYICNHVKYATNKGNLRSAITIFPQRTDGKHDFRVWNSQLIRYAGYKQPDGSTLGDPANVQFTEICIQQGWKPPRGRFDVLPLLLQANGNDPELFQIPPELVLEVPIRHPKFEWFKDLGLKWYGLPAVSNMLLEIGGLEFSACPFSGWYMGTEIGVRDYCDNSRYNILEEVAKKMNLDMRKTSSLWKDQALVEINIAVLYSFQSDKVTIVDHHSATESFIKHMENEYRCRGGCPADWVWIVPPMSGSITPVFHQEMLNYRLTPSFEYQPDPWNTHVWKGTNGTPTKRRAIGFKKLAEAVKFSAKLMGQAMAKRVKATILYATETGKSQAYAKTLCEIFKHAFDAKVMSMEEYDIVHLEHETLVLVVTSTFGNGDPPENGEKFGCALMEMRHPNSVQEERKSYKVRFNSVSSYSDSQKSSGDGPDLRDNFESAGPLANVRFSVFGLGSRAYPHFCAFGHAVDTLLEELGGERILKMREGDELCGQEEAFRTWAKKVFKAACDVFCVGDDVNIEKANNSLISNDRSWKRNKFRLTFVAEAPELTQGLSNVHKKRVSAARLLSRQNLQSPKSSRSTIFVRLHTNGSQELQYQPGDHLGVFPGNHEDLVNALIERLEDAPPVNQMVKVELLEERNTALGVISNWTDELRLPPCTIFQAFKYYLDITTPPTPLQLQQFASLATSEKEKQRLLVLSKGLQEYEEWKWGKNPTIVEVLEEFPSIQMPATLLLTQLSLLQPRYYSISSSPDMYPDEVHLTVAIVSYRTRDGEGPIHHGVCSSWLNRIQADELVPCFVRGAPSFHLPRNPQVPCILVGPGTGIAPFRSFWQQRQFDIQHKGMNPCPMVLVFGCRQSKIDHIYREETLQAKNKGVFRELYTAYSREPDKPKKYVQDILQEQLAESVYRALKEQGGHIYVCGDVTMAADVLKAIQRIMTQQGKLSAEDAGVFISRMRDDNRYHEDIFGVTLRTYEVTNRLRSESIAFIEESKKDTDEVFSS
Chain of iNOS (P35228 whole entry): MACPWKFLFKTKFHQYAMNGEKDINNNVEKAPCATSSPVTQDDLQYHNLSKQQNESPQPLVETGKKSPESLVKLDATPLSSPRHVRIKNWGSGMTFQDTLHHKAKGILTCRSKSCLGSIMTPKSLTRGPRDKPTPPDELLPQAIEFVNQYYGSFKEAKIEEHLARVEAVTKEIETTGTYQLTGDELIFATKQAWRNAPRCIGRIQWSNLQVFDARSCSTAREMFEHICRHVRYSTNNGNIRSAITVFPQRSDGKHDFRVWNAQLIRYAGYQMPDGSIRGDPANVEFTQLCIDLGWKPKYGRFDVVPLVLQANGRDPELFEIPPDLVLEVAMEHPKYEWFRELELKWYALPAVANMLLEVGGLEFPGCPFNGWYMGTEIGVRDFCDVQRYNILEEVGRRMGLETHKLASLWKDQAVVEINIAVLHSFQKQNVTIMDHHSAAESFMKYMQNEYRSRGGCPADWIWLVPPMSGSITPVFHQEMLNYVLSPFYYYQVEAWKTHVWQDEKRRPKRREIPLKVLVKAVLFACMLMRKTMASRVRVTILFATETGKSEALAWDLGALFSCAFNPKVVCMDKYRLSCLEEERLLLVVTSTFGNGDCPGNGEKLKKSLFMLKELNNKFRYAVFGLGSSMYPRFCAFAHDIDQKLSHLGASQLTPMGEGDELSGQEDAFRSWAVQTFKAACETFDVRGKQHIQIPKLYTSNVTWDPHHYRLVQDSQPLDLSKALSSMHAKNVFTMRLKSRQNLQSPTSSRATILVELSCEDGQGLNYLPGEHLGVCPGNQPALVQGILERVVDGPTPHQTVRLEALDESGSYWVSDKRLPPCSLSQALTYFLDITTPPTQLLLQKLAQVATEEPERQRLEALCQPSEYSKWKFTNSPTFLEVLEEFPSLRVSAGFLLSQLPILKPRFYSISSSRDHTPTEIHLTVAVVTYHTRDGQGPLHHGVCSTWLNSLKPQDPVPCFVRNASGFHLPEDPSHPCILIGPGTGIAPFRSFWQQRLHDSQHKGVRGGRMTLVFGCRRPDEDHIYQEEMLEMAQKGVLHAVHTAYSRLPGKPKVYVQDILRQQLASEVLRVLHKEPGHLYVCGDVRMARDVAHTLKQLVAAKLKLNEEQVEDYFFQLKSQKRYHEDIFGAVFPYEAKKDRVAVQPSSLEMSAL

CSC(=N)NCCC[C@H](N)C(=O)O [L-MIN, S-methyl-L-thiocitrulline, reference compound]
IC50 (E-cNOS (Type 3)): 152 nM
Ratio of IC50 values E-cNOS/iNOS (iNOS (Type 2)): 0.6
iNOS inhibitory potency compared with the existing NOS inhibitors (L-MIN) (iNOS (Type 2); [6]): the strongest iNOS inhibitory activity in the existing NOS inhibitors
IC50 (iNOS (Type 2)): 248 nM
reported selectivity for N-cNOS (N-cNOS): selectivity for N-cNOS

COC(=O)[C@@H](N)CCCNC(=N)N[N+](=O)[O-] [L-NAME, N^G-nitro-L-arginine methyl ester, reference compound]
IC50 (E-cNOS (Type 3)): 923 nM
infarct volume [1]: decreased significantly

N=C(N)NN [AG, aminoguanidine]
reported selectivity for iNOS (iNOS): selectivity for iNOS

N=C(NCCC[C@H](N)C(=O)O)N[N+](=O)[O-] [L-NNA, N^G-nitro-L-arginine]
effects against neuronal cell death [2]: ameliorative effects
effects against brain edema and infarction [3]: ameliorative effects

CCSC(=N)Nc1cccc(C(C)(C)N)c1.Cl.Cl [Example 96, N-(1-methyl-1-(3-(S-ethylisothioureido)phenyl)ethyl)amine dihydrochloride]
IC50 (E-cNOS (Type 3)): 198 nM
increase in the percentage of the water content (brain edema), dose dependence ([4]; bolus 0.12-3.6 μg/kg then infusion 0.01-0.3 μg/kg/min): reduced in a dose-dependent manner
percentage of the water content in the stroke hemisphere to the contralateral hemisphere ([4]; sustained infusion 0.3 μg/kg/min following intravenous bolus 3.6 μg/kg, p<0.01, control group about 103.8%): about 102.1%
infarction, dose dependence ([5]; 3-h MCA occlusion and 24-h reperfusion, bolus 0.12-3.6 μg/kg then infusion 0.01-0.3 μg/kg/min): ameliorated in a dose-dependent manner
decrease of infarct volume ([5]; rat, in vivo, iv): about 79.7%
iNOS inhibitory potency compared with the existing NOS inhibitors (L-MIN) (iNOS (Type 2); [6]): more potent in inhibiting iNOS than L-MIN
selectivity for iNOS compared to E-cNOS, compared with the existing NOS inhibitors (L-NIO) (iNOS (Type 2); [6]): more selective inhibitory effect on iNOS than L-NIO
Ratio of IC50 values E-cNOS/iNOS (iNOS (Type 2); index of selectivity): 6.9
IC50 (iNOS (Type 2)): 28.6 nM
